Laboratory results as given in US11365184B2, “Antiproliferative compounds, and their pharmaceutical compositions and uses” (Celgene Corporation, priority 2016, dated 2022).

Tested on: KG-1 cell line
Assay: KG-1 cell proliferation assay (Cell Titer-Glo)
Format: cell-based
Conditions: Homo sapiens; KG-1 cells, 72 hours post-treatment, Cell Titer-Glo luminescence; read-out: FCA Prolif Cell TiterGlo KG-1 72 h (IC50)
Method: The following is an example of an assay that can be used to determine the anti-proliferative activity of Compound A and Compound B in KG-1 cell line (American Type Culture Collection [ATCC]: catalogue number ATCC© CCL-246™) at 72 hours post-treatment. The seeding density for KG-1 can be optimized to ensure assay linearity in 384-well plates.
Increasing concentrations of test compounds (0.5 nM to 10 μM) was spotted in a 10-point serial dilution fashion (3-fold dilution) in duplicate via an acoustic dispenser (EDC ATS-100) into an empty 384-well plate. The dimethyl sulfoxide (DMSO) concentration was kept constant for a final assay concentration of 0.1% DMSO. Prior to testing, KG-1 cells were grown in RPMI-1640 (Roswell Park Memorial Institute-1640) medium with 10% FBS (fetal bovine serum: HyClone) and expanded in culture flasks to provide sufficient amounts of starting material. Cells were then diluted to 5000 cells per well, in a 50 μL volume and added directly to the compound-spotted 384-well plates. Cells were allowed to grow for 72 hours in 5% CO2 at 37° C. At the time when exposure of cells to compound began (to), initial viable cell number was assessed via Cell Titer-Glo® Luminescent Cell Viability Assay at a 1 vol: 2 vol ratio according to manufacturer's instructions (Promega Corporation, Madison, Wis.) by quantifying the level of luminescence generated by adenosine-5′-triphosphate (ATP) present in viable cells. After 72 hours, cell viability of the treated cells is assessed via Cell Titer-Glo® and read for luminescence.

With `CC(C)[C@H](N)C(=O)OCN1C(=O)CCC(N2Cc3cc(CNC(=O)C(F)(F)c4ccc(F)cc4)ccc3C2=O)C1=O` (stereo partly drawn) the IC50 was 10 to 100 nM.

For `O=C1CCC(N2Cc3cc(CNC(=O)C(F)(F)c4ccc(Cl)cc4)ccc3C2=O)C(=O)N1COP(=O)(O)O` (stereo not drawn), the IC50 was 100 to 700 nM.

Work on `O=C1CCC(N2Cc3cc(CNC(=O)C(F)(F)c4ccc(F)cc4)ccc3C2=O)C(=O)N1COP(=O)(O)O` (stereo not drawn) yielded an IC50 of 100 to 700 nM.
